In patent publication US10118930B2, “Piperidinylpyrazolopyrimidinones and their use” (BAYER PHARMA AKTIENGESELLSCHAFT, priority 2015, dated 2018) one finds IC50 data, which are given here for 32 molecules.

For the test, the system named is clot lysis (fibrinolysis) in diluted human citrated plasma, tPA-induced. The test is described as follows: Plasma-based clot lysis assay (5%). In kind it is biochemical. Particulars: human citrated platelet-poor plasma 5%, fibrinogen 3 μM, CaCl2 10 mM, tPA 0.2 nM, 37° C., OD at 405 nm. A digest of the protocol: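 Compounds added to 5% platelet-poor citrated human plasma with 3 μM fibrinogen in 20 mM HEPES, 150 mM NaCl, 0.01% Brij, pH 7. Clotting and lysis started with 10 mM CaCl2 and 0.2 nM tPA at 37° C. IC50 derived by comparing time courses with a blank control reaction.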

In general, IC50 refers to the point on the concentration scale where inhibition reaches its midpoint. Read a low IC50 as higher potency.

SMILES strings stand for the structures. Structures can show the parent of a compound that is named as a salt.

Turning to `COc1ccc(Cc2nc(-c3cnn4c(C5CCNCC5)cc(=O)[nH]c34)no2)cn1` [Example 251, 3-{5-[(6-methoxypyridin-3-yl)methyl]-1,2,4-oxadiazol-3-yl}-7-(piperidin-4-yl)pyrazolo[1,5-a]pyrimidin-5(4H)-one hydrochloride], 31 nM corresponded to half-maximal inhibition (IC50).

Molecule `CC(C)Oc1ccc(Cc2nc(-c3cnn4c(C5CCNCC5)cc(=O)[nH]c34)no2)cc1` [Example 252, 7-(piperidin-4-yl)-3-{5-[4-(propan-2-yloxy)benzyl]-1,2,4-oxadiazol-3-yl}pyrazolo[1,5-a]pyrimidin-5(4H)-one hydrochloride] registered an IC50 of 24 nM.

In turn, `CC(C)(c1ccc(F)cc1)c1noc(-c2cnn3c(C4CCNCC4)cc(=O)[nH]c23)n1` [Example 255, 3-{3-[2-(4-fluorophenyl)propan-2-yl]-1,2,4-oxadiazol-5-yl}-7-(piperidin-4-yl)pyrazolo[1,5-a]pyrimidin-5(4H)-one hydrochloride] registered an IC50 of 17 nM.

In the case of `CC(C)c1nc(-c2cnn3c(C4CCNCC4)cc(=O)[nH]c23)no1` [Example 256, 7-(piperidin-4-yl)-3-[5-(propan-2-yl)-1,2,4-oxadiazol-3-yl]pyrazolo[1,5-a]pyrimidin-5(4H)-one hydrochloride], the IC50 turned out to be 28 nM.

Molecule `CCc1nc(-c2cnn3c(C4CCNCC4)cc(=O)[nH]c23)no1` [Example 262, 3-(5-ethyl-1,2,4-oxadiazol-3-yl)-7-(piperidin-4-yl)pyrazolo[1,5-a]pyrimidin-5(4H)-one hydrochloride] had an IC50 of 23 nM.

Take `CC(C)N1CCC(c2noc(-c3cnn4c(C5CCNCC5)cc(=O)[nH]c34)n2)CC1` [Example 264, 7-(piperidin-4-yl)-3-{3-[1-(propan-2-yl)piperidin-4-yl]-1,2,4-oxadiazol-5-yl}pyrazolo[1,5-a]pyrimidin-5(4H)-one hydrochloride]: the IC50 came out at 200 nM.

`CCc1cnn2c(C3CCNCC3)cc(=O)[nH]c12` [Example 265, 3-ethyl-7-(piperidin-4-yl)pyrazolo[1,5-a]pyrimidin-5(4H)-one hydrochloride]: the IC50 came out at 340 nM.

Turning to `CC(C)(c1nnc(-c2cnn3c(C4CCNCC4)cc(=O)[nH]c23)o1)n1cncn1` [Example 275, 7-(piperidin-4-yl)-3-{5-[2-(1H-1,2,4-triazol-1-yl)propan-2-yl]-1,3,4-oxadiazol-2-yl}pyrazolo[1,5-a]pyrimidin-5(4H)-one hydrochloride], half-maximal inhibition (IC50) was put at 20 nM.

In turn, `O=c1cc(C2CCNCC2)n2ncc(-c3nnc(Cc4ccccc4Cl)o3)c2[nH]1` [Example 276, 3-[5-(2-chlorobenzyl)-1,3,4-oxadiazol-2-yl]-7-(piperidin-4-yl)pyrazolo[1,5-a]pyrimidin-5(4H)-one hydrochloride] displayed an IC50 of 14 nM.

Regarding `O=c1cc(C2CCNCC2)n2ncc(-c3nnc(C4(c5ccc(Cl)cc5)CC4)o3)c2[nH]1` [Example 278, 3-{5-[1-(4-chlorophenyl)cyclopropyl]-1,3,4-oxadiazol-2-yl}-7-(piperidin-4-yl)pyrazolo[1,5-a]pyrimidin-5(4H)-one hydrochloride], 19 nM corresponded to half-maximal inhibition (IC50).

Turning to `O=c1cc(C2CCNCC2)n2ncc(-c3nnc(Cc4c(F)cccc4Cl)o3)c2[nH]1` [Example 279, 3-[5-(2-chloro-6-fluorobenzyl)-1,3,4-oxadiazol-2-yl]-7-(piperidin-4-yl)pyrazolo[1,5-a]pyrimidin-5(4H)-one hydrochloride], the IC50 is 25 nM.

On to `COc1ccccc1Cc1nnc(-c2cnn3c(C4CCNCC4)cc(=O)[nH]c23)o1` [Example 280, 3-[5-(2-methoxybenzyl)-1,3,4-oxadiazol-2-yl]-7-(piperidin-4-yl)pyrazolo[1,5-a]pyrimidin-5(4H)-one hydrochloride], for which it took 29 nM to reach half-maximal inhibition (IC50).

Take `O=c1cc(C2CCNCC2)n2ncc(-c3nnc(CCN4CCOCC4)o3)c2[nH]1` [Example 282, 3-{5-[2-(morpholin-4-yl)ethyl]-1,3,4-oxadiazol-2-yl}-7-(piperidin-4-yl)pyrazolo[1,5-a]pyrimidin-5(4H)-one hydrochloride]: the IC50 is 34 nM.

In the case of `O=c1cc(C2CCNCC2)n2ncc(-c3nnc(Cc4ccc(Cl)cc4)o3)c2[nH]1` [Example 284, 3-[5-(4-chlorobenzyl)-1,3,4-oxadiazol-2-yl]-7-(piperidin-4-yl)pyrazolo[1,5-a]pyrimidin-5(4H)-one hydrochloride], the midpoint of inhibition, the IC50, lay at 20 nM.

As for `O=c1cc(C2CCNCC2)n2ncc(-c3nnc(O)o3)c2[nH]1` [Example 286, 3-(5-hydroxy-1,3,4-oxadiazol-2-yl)-7-(piperidin-4-yl)pyrazolo[1,5-a]pyrimidin-5(4H)-one hydrochloride], the IC50 turned out to be 33 nM.

`NC(=S)c1cnn2c(C3CCNCC3)cc(=O)[nH]c12` [Example 287, 5-oxo-7-(piperidin-4-yl)-4,5-dihydropyrazolo[1,5-a]pyrimidine-3-carbothioamide hydrochloride] gave an IC50 of 37 nM.

`O=c1cc(C2CCNCC2)n2ncc(-c3nnc(-c4cccs4)o3)c2[nH]1` [Example 288, 7-(piperidin-4-yl)-3-[5-(thiophen-2-yl)-1,3,4-oxadiazol-2-yl]pyrazolo[1,5-a]pyrimidin-5 (4H)-one hydrochloride] gave an IC50 of 27 nM.

With `O=c1cc(C2CCNCC2)n2ncc(-c3nnc(CC(F)(F)F)o3)c2[nH]1` [Example 289, 7-(piperidin-4-yl)-3-[5-(2,2,2-trifluoroethyl)-1,3,4-oxadiazol-2-yl]pyrazolo[1,5-a]pyrimidin-5(4H)-one hydrochloride], the IC50 was determined as 27 nM.

Regarding `O=c1cc(C2CCNCC2)n2ncc(-c3nnc(-c4ccccc4Cl)o3)c2[nH]1` [Example 290, 3-[5-(2-chlorophenyl)-1,3,4-oxadiazol-2-yl]-7-(piperidin-4-yl)pyrazolo[1,5-a]pyrimidin-5(4H)-one hydrochloride], the IC50 stood at 26 nM.

Molecule `O=c1cc(C2CCNCC2)n2ncc(-c3nnc(CN4CCCCC4)o3)c2[nH]1` [Example 291, 7-(piperidin-4-yl)-3-[5-(piperidin-1-ylmethyl)-1,3,4-oxadiazol-2-yl]pyrazolo[1,5-a]pyrimidin-5(4H)-one hydrochloride] came in with an IC50 of 85 nM.

Consider `O=c1cc(C2CCNCC2)n2ncc(-c3nnc(C4CCCCC4)o3)c2[nH]1` [Example 293, 3-(5-cyclohexyl-1,3,4-oxadiazol-2-yl)-7-(piperidin-4-yl)pyrazolo[1,5-a]pyrimidin-5 (4H)-one hydrochloride], for which the IC50 is 31 nM.

Molecule `O=c1cc(C2CCNCC2)n2ncc(-c3nnc(C4CCC4)o3)c2[nH]1` [Example 294, 3-(5-cyclobutyl-1,3,4-oxadiazol-2-yl)-7-(piperidin-4-yl)pyrazolo[1,5-a]pyrimidin-5 (4H)-one hydrochloride] displayed an IC50 of 37 nM.

With `CCCCc1nnc(-c2cnn3c(C4CCNCC4)cc(=O)[nH]c23)o1` [Example 295, 3-(5-butyl-1,3,4-oxadiazol-2-yl)-7-(piperidin-4-yl)pyrazolo[1,5-a]pyrimidin-5(4H)-one hydrochloride], the midpoint of inhibition, the IC50, lay at 35 nM.

`Cc1nn2c(C3CCNCC3)cc(=O)[nH]c2c1-c1nc(C(C)(C)C)no1` [Example 296, 3-(3-tert-butyl-1,2,4-oxadiazol-5-yl)-2-methyl-7-(piperidin-4-yl)pyrazolo[1,5-a]pyrimidin-5(4H)-one hydrochloride] showed an IC50 of 23 nM.

Molecule `COCCc1noc(-c2c(C)nn3c(C4CCNCC4)cc(=O)[nH]c23)n1` [Example 297, 3-[3-(2-methoxyethyl)-1,2,4-oxadiazol-5-yl]-2-methyl-7-(piperidin-4-yl)pyrazolo[1,5-a]pyrimidin-5(4H)-one hydrochloride] returned an IC50 of 27 nM.

The molecule `Cc1nn2c(C3CCNCC3)cc(=O)[nH]c2c1-c1nc(Cc2ccc(F)cc2)no1` [Example 299, 3-[3-(4-fluorobenzyl)-1,2,4-oxadiazol-5-yl]-2-methyl-7-(piperidin-4-yl)pyrazolo[1,5-a]pyrimidin-5(4H)-one hydrochloride] gave an IC50 of 25 nM.

`CCc1noc(-c2c(C)nn3c(C4CCNCC4)cc(=O)[nH]c23)n1` [Example 300, 3-(3-ethyl-1,2,4-oxadiazol-5-yl)-2-methyl-7-(piperidin-4-yl)pyrazolo[1,5-a]pyrimidin-5(4H)-one hydrochloride] yielded an IC50 of 16 nM.

`Cc1nn2c(C3CCNCC3)cc(=O)[nH]c2c1-c1nc(CCOC(C)(C)C)no1` [Example 302, 3-[3-(2-tert-butoxyethyl)-1,2,4-oxadiazol-5-yl]-2-methyl-7-(piperidin-4-yl)pyrazolo[1,5-a]pyrimidin-5(4H)-one hydrochloride] came in with an IC50 of 6 nM.

For `CC(C)(C)CC1CC(c2cc(=O)[nH]c3c(-c4nc(C(C)(C)C)no4)cnn23)CCN1` (centres unmarked) [Example 303, 3-(3-tert-butyl-1,2,4-oxadiazol-5-yl)-7-[2-(2,2-dimethylpropyl)piperidin-4-yl]pyrazolo[1,5-a]pyrimidin-5(4H)-one hydrochloride], the IC50 was 38 nM.

Molecule `CC(C)CCc1csc(-c2cnn3c(C4CCNCC4)cc(=O)[nH]c23)n1` [Example 304, 3-[4-(3-methylbutyl)-1,3-thiazol-2-yl]-7-(piperidin-4-yl)pyrazolo[1,5-a]pyrimidin-5 (4H)-one hydrochloride] returned an IC50 of 24 nM.

In turn, `COc1ccc(C2(c3nnc(-c4cnn5c(C6CCNCC6)cc(=O)[nH]c45)o3)CC2)cc1` [Example 305, 3-{5-[1-(4-methoxyphenyl)cyclopropyl]-1,3,4-oxadiazol-2-yl}-7-(piperidin-4-yl)pyrazolo[1,5-a]pyrimidin-5(4H)-one hydrochloride] yielded an IC50 of 20 nM.

In turn, `Cc1ccc(-c2noc(-c3c(C)nn4c(C5CCNCC5)cc(=O)[nH]c34)n2)cc1` [Example 306, 2-methyl-3-[3-(4-methylphenyl)-1,2,4-oxadiazol-5-yl]-7-(piperidin-4-yl)pyrazolo[1,5-a]pyrimidin-5(4H)-one hydrochloride] gave an IC50 of 11 nM.
